Assays:
[1] = target: Beta-3 adrenergic receptor (Homo sapiens, UniProt P13945); assay: (§1) PDSP Secondary Binding target: ADRB3 - Compounds are tested at 10 uM concentration, plate are incubated at room temperature in the dark for 90 minutes. Reaction are stopped by vacuum filtration onto 0.3% polyethyleneimine soaked filter mats using Filtermate harvester. Scintillation cocktail is then melted onto microwave-dried filters on a hot plate and the radio activity is counted in Microbia counter.
[2] = target: Sigma non-opioid intracellular receptor 1 (Homo sapiens, UniProt Q99720); assay: as §1, with “SIGMAR1” for “ADRB3”
[3] = target: T1, Alpha-2B adrenergic receptor (Homo sapiens, UniProt P18089); assay: as §1, with “ADRA2B” for “ADRB3”
T1 sequence (P18089 whole entry): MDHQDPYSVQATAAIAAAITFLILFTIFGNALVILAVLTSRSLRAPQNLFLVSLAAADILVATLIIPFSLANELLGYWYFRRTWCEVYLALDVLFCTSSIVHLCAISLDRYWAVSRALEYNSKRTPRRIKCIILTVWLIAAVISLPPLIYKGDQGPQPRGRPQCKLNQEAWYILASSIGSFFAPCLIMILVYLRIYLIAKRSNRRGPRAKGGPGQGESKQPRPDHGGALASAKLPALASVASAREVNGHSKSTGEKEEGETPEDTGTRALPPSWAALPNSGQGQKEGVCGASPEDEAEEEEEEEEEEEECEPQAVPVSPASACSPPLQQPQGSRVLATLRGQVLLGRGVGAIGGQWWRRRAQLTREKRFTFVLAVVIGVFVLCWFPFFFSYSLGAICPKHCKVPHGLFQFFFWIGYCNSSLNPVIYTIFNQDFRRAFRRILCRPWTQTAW

Translocator protein = Translocator protein (Homo sapiens, UniProt P30536); assay: as §1, with “TSPO” for “ADRB3”
[4] = target: Sigma intracellular receptor 2 (Homo sapiens, UniProt Q5BJF2); assay: as §1, with “TMEM97” for “ADRB3”
[5] = target: Sodium-dependent dopamine transporter (Homo sapiens, UniProt Q01959); assay: as §1, with “SLC6A3” for “ADRB3”
D(1B) dopamine receptor = D(1B) dopamine receptor (Homo sapiens, UniProt P21918); assay: as §1, with “DRD5” for “ADRB3”
[6] = target: Sodium-dependent serotonin transporter (Homo sapiens, UniProt P31645); assay: as §1, with “SLC6A4” for “ADRB3”
[7] = target: T2, Alpha-2A adrenergic receptor (Homo sapiens, UniProt P08913); assay: as §1, with “ADRA2A” for “ADRB3”
T2 sequence (P08913 whole entry): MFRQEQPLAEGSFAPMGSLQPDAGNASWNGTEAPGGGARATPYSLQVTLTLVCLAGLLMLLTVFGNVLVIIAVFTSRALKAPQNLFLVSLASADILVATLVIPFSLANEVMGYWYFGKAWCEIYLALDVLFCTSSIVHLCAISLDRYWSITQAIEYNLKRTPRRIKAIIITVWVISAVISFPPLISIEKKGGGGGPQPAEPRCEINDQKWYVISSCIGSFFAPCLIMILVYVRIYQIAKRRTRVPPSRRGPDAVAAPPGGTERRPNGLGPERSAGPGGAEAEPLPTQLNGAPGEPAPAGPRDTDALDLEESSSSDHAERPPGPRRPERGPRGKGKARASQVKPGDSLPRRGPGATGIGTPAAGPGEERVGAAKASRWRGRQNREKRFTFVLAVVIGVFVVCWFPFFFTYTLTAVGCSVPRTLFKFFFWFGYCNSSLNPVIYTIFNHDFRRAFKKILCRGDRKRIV

[8] = target: Kappa-type opioid receptor (Homo sapiens, UniProt P41145); assay: as §1, with “OPRK1” for “ADRB3”
Mu-type opioid receptor = Mu-type opioid receptor (Homo sapiens, UniProt P35372); assay: as §1, with “OPRM1” for “ADRB3”
D(3) dopamine receptor = D(3) dopamine receptor (Homo sapiens, UniProt P35462); assay: as §1, with “DRD3” for “ADRB3”
[9] = target: T3, Alpha-2C adrenergic receptor (Homo sapiens, UniProt P18825); assay: as §1, with “ADRA2C” for “ADRB3”
T3 sequence (P18825 whole entry): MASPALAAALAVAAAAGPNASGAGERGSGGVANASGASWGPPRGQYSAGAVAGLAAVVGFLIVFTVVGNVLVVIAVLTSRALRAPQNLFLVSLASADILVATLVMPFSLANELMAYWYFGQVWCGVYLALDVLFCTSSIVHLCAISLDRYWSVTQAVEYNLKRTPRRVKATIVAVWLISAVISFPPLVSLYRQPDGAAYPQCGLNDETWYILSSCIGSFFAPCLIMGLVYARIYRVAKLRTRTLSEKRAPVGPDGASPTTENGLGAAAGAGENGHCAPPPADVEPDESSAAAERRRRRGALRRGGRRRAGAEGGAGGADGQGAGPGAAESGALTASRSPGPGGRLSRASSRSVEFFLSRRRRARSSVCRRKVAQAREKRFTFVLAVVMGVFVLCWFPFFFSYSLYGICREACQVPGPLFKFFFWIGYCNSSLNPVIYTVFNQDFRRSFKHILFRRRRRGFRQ

[10] = target: 5-hydroxytryptamine receptor 2B (Homo sapiens, UniProt P41595); assay: as §1, with “HTR2B” for “ADRB3”
[11] = target: T4, Muscarinic acetylcholine receptor M5 (Homo sapiens, UniProt P08912); assay: as §1, with “CHRM5” for “ADRB3”
T4 sequence (P08912 whole entry): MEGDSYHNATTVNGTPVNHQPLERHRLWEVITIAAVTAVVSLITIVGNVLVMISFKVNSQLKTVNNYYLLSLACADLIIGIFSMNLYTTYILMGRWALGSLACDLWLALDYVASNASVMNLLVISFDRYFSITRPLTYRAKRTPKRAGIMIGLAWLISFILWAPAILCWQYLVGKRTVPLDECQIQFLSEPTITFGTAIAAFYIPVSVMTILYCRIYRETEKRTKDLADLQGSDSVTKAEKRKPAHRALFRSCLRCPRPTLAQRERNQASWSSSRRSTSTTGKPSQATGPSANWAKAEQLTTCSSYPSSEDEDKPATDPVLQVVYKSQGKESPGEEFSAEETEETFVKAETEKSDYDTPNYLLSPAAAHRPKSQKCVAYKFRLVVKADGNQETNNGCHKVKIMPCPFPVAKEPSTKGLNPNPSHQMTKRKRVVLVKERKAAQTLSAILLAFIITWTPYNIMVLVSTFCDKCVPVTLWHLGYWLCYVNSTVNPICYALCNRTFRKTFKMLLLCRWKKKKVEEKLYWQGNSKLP

[12] = target: Sodium-dependent noradrenaline transporter (Homo sapiens, UniProt P23975); assay: as §1, with “SLC6A2” for “ADRB3”
D(4) dopamine receptor = target: T5, D(4) dopamine receptor (Homo sapiens, UniProt P21917); assay: as §1, with “DRD4” for “ADRB3”
T5 sequence (P21917 whole entry): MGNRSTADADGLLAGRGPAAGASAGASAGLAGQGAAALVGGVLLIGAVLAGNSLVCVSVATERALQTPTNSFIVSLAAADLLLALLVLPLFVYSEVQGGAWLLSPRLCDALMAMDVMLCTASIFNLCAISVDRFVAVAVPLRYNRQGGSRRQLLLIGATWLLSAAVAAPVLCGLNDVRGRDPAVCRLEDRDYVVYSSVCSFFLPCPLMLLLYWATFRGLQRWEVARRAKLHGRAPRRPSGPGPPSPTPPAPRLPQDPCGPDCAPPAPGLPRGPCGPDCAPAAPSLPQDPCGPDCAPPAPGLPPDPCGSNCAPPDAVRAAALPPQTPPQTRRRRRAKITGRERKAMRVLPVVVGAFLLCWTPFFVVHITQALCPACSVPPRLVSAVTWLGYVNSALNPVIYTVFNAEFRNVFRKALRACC

[13] = target: T6, Alpha-1B adrenergic receptor (Homo sapiens, UniProt P35368); assay: as §1, with “ADRA1B” for “ADRB3”
T6 sequence (P35368 whole entry): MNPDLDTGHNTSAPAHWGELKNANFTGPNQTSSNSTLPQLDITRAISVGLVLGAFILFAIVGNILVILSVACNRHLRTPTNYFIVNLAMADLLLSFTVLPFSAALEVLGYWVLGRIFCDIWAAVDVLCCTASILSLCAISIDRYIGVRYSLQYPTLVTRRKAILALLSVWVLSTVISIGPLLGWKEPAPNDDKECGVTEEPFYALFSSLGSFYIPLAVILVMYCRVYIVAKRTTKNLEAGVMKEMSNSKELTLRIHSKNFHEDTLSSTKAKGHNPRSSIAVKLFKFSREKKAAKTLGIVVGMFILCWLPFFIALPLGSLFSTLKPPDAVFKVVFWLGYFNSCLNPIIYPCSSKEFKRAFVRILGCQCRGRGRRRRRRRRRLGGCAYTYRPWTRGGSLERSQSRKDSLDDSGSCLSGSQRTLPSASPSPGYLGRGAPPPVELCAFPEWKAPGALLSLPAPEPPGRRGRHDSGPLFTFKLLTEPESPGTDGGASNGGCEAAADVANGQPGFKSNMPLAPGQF

Sigma intracellular receptor 2, sequence (Q5BJF2 whole entry): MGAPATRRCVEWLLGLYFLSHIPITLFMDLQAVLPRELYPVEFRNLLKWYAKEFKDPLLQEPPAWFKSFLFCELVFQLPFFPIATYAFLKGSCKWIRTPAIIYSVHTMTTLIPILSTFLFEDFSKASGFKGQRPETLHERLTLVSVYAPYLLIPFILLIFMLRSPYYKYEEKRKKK
Sodium-dependent dopamine transporter, sequence (Q01959 whole entry): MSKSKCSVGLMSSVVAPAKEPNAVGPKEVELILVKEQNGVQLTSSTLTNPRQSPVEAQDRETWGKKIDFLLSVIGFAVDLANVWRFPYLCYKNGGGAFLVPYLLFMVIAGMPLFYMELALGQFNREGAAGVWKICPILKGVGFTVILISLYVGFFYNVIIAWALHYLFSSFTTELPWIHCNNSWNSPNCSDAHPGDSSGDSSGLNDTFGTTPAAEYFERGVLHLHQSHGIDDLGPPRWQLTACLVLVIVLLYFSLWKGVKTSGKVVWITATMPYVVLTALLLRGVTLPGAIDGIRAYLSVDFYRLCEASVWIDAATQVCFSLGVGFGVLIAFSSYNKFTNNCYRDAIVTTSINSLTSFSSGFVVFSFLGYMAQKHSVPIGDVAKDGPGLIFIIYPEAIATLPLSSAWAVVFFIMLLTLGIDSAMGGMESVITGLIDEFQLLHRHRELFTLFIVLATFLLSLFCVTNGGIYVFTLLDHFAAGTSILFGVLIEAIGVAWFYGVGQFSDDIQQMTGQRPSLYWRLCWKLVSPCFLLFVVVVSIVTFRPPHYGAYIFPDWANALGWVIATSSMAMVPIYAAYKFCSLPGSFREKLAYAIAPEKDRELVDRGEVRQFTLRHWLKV
Sigma non-opioid intracellular receptor 1, sequence (Q99720 whole entry): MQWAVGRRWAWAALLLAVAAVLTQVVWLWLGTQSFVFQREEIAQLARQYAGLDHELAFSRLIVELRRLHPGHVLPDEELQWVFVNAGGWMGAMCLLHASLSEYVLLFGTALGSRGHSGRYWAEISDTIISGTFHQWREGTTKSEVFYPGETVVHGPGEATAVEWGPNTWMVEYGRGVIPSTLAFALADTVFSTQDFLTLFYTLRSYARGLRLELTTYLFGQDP
D(3) dopamine receptor, sequence (P35462 whole entry): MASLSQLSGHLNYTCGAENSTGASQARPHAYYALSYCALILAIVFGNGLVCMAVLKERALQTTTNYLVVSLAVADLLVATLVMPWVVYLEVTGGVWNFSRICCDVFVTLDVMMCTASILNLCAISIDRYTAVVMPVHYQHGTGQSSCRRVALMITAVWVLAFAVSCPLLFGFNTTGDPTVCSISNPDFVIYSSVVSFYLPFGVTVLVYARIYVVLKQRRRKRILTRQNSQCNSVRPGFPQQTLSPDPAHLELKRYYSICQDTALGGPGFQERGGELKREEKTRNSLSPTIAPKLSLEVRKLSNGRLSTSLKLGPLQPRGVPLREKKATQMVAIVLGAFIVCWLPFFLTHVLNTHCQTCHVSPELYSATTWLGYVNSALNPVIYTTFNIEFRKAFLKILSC
Beta-3 adrenergic receptor, sequence (P13945 whole entry): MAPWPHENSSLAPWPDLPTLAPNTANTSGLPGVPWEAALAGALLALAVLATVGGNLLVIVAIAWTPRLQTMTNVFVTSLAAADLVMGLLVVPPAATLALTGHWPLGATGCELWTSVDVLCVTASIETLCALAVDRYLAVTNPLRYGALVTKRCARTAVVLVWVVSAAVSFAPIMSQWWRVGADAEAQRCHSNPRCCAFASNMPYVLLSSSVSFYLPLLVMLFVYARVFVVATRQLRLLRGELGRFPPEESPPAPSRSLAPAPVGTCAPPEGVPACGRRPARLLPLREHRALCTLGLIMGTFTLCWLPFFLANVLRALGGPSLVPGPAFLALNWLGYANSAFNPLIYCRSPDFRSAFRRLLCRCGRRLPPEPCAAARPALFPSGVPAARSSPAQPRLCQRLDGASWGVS
Translocator protein, sequence (P30536 whole entry): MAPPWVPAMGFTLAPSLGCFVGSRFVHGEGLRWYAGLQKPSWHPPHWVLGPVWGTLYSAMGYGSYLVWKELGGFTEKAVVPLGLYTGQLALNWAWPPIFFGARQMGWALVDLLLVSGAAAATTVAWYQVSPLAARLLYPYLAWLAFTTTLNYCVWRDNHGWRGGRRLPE
Kappa-type opioid receptor, sequence (P41145 whole entry): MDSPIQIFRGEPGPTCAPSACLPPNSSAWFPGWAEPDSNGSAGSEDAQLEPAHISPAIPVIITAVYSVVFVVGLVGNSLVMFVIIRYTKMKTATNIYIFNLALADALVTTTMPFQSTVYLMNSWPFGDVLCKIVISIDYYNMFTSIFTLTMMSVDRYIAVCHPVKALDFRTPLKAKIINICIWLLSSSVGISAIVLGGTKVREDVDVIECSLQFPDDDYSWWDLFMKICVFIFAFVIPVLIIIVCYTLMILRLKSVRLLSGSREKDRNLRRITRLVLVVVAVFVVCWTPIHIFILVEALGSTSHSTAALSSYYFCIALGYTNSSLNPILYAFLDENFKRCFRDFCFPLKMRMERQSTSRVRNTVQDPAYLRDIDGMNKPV
D(1B) dopamine receptor, sequence (P21918 whole entry): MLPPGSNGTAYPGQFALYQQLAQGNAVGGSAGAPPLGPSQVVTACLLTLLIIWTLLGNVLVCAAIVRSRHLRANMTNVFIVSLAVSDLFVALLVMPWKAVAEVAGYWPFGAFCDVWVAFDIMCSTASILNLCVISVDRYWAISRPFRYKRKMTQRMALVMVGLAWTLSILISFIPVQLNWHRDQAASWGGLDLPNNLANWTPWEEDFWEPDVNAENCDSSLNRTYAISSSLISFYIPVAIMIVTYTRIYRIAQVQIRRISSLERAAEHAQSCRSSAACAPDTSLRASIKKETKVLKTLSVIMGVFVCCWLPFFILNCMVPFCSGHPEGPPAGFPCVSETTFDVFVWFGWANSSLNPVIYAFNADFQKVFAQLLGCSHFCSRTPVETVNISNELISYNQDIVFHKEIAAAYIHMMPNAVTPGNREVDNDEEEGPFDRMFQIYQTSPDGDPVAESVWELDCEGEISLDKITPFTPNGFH
Sodium-dependent noradrenaline transporter, sequence (P23975 whole entry): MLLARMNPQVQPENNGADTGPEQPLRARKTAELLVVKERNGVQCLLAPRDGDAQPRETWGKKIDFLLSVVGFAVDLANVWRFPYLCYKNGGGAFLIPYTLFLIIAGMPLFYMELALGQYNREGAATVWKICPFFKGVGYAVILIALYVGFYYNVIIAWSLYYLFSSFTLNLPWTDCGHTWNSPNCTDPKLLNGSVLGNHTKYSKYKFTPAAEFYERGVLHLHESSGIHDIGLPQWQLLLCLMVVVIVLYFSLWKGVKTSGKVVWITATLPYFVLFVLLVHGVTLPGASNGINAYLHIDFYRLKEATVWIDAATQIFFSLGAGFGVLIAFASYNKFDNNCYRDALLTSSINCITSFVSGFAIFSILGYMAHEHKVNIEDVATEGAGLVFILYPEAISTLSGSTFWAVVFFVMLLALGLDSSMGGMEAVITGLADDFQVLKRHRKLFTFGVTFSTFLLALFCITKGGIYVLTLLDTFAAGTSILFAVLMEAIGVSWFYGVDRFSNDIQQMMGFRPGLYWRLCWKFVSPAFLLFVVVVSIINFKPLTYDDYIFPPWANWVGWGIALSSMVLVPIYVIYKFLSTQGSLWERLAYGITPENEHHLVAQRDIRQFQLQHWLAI
Sodium-dependent serotonin transporter, sequence (P31645 whole entry): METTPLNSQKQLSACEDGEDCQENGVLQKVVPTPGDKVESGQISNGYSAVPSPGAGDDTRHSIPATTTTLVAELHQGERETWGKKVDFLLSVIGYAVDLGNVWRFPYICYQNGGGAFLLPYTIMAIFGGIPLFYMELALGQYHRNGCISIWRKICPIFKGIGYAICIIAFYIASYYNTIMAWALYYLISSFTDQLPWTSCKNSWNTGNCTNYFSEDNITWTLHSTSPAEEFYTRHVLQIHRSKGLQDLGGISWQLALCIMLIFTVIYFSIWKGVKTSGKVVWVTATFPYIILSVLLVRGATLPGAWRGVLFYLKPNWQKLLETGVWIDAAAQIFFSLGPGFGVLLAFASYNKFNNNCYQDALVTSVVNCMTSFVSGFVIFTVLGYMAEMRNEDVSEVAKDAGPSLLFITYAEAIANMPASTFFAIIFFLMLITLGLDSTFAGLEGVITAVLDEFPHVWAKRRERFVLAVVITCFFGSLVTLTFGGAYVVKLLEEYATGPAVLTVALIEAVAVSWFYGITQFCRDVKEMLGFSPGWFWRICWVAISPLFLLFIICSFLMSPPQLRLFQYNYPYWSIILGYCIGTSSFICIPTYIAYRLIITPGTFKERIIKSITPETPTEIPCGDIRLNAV
Mu-type opioid receptor, sequence (P35372 whole entry): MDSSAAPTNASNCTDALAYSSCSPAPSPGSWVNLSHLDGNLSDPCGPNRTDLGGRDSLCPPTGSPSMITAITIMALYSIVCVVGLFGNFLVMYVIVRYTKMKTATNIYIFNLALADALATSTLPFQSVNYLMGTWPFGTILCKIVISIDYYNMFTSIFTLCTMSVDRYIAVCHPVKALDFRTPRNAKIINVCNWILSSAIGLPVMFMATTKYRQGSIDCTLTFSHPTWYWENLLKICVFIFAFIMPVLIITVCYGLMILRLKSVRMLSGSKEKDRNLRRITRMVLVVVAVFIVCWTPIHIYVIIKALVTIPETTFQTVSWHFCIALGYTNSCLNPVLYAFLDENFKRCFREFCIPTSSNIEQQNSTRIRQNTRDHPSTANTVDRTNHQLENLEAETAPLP

Row | Compound | Ki [1] [µM] | Ki [2] [µM] | Ki [3] [µM] | Ki (Translocator protein) [µM] | Ki [4] [µM] | Ki [5] [µM] | Ki [7] [µM] | Ki (D(3) dopamine receptor) [µM] | further results
1 | Cc1nc(C#Cc2ccnc(Cl)c2)c(C)n1-c1ccc(OC(F)(F)F)cc1 | 6.98 | 2.69 | > 10 | 1.95 | 1.71 | – | – | – | –
2 | N#Cc1ccc(NC(=O)Nc2ccccc2Br)c2nn[nH]c12 | 8.66 | – | – | 3.03 | – | 2.85 | – | – | –
3 | CC1CCN(CC[C@H]2CCCN2S(=O)(=O)c2cccc(O)c2)CC1 | – | – | 0.311 | – | 0.0102 | – | 1.18 | 0.568 | Ki (D(1B) dopamine receptor): > 10 µM; Ki [6]: > 10 µM; Ki [8]: 0.448 µM; Ki (Mu-type opioid receptor): 0.185 µM; Ki [9]: 1.74 µM
4 | Cc1cc([C@@H](C)Nc2cccc(-c3cc(C)c(C(=O)N[C@@H](C)C(=O)O)c(C)c3)c2)ccc1Cl | > 10 | – | – | 1.38 | – | 0.402 | > 10 | 1.11 | Ki [10]: 2.48 µM
5 | CC(C)NCC(O)c1ccc(N)c(C#N)c1 (centres undefined) [CIMATEROL] | 1.87 | – | – | – | – | – | – | – | –
6 | CCC[C@H](Oc1cc(C)c(-n2cc(C(F)(F)F)cn2)c(C)c1)c1ccc(C(=O)NCCC(=O)O)cc1 [PF-06291874] | > 10 | – | – | – | – | – | > 10 | – | Ki [11]: 8.58 µM
7 | Cc1csc2c(N[C@@H](C)CN3CCN(S(=O)(=O)c4ccc(Cl)c(Cl)c4)CC3)ncnc12 | 8.88 | 0.958 | – | 0.799 | 2 | – | – | 0.581 | Ki [8]: 0.494 µM
8 | C[C@@H](NCCc1ccc(O)cc1)[C@@H](O)c1ccc(O)cc1 (relative stereo) | 3.73 | 0.587 | – | – | 2.67 | – | – | – | Ki [12]: 2.58 µM; Ki [6]: 4.05 µM; Ki (Mu-type opioid receptor): 7.85 µM
9 | NC[C@@H]1O[C@H](C23CC4CC(CC(C4)C2)C3)Cc2c1ccc(O)c2O | – | – | 0.89 | – | 0.754 | 0.478 | 0.898 | 0.545 | Ki (D(1B) dopamine receptor): 0.00302 µM; Ki [12]: 0.951 µM; Ki (D(4) dopamine receptor): 0.562 µM; Ki [13]: 4.21 µM; Ki [9]: 0.0717 µM
